# Measured values as given in US20130172340A1, “SUBSTITUTED 2-(9H-PURIN-9-YL) ACETIC ACID ANALOGUES AS INHIBITORS OF STAT3” (University of Central Flordia Research Foundation,, priority 2010, published 2013).
# Experiments:
# [1] = system: pY705STAT3; assay: Immunoblotting of constitutive STAT3 phosphorylation in NIH3T3/v-Src; assay type: cell-based, mouse; conditions: for constitutive STAT3 phosphorylation: NIH3T3/v-Src, 40 or 50 μM, 12, 24, or 48 h
# Procedure: (§1) Positions of proteins in gel are labeled; control lanes (0) are whole-cell lysates from 0.05% DMSO-treated cells. Data are representative of 3-4 independent determinations. Further discussion on the figure is provided in the Experimental section below.
# (§2) Immunoprecipitation, and SDS/PAGE and Western blotting analysis were performed as previously described (6, 16). Primary antibodies used were anti-STAT3, pY705STAT3, pY416Src, Src, pErk1/2, Erk1/2, pSTAT1, STAT1, (Cell Signaling), and antiphosphotyrosine, clone 4G10 (Upstate Biotechnology, Lake Placid, N.Y.). Where appropriate, cells were stimulated for 12 min by 9 ng/μl rhEGF (12 μl into 3 ml culture) prior to preparation of whole-cell lysates for immunoprecipitation and/or immunoblotting analysis.
# [2] = system: pErk1/2; assay: Immunoblotting of constitutive phospho-ErkMAPK in NIH3T3/v-Src and MDA-MB-231; assay type: cell-based; conditions: same treatments, all panels of FIG. 2
# Procedure: as §1, §2
# [3] = biological target: STAT3 (Mus musculus, UniProt P42227); assay: Surface plasmon resonance analysis of binding to STAT3; set-up: His; made in house; host or cells: E. coli BL21(DE3); species or system murine; conditions: SPR, purified STAT3 immobilized on HisCap Sensor Chip
# Sequence of STAT3 (P42227 whole entry, the tested form may be a part): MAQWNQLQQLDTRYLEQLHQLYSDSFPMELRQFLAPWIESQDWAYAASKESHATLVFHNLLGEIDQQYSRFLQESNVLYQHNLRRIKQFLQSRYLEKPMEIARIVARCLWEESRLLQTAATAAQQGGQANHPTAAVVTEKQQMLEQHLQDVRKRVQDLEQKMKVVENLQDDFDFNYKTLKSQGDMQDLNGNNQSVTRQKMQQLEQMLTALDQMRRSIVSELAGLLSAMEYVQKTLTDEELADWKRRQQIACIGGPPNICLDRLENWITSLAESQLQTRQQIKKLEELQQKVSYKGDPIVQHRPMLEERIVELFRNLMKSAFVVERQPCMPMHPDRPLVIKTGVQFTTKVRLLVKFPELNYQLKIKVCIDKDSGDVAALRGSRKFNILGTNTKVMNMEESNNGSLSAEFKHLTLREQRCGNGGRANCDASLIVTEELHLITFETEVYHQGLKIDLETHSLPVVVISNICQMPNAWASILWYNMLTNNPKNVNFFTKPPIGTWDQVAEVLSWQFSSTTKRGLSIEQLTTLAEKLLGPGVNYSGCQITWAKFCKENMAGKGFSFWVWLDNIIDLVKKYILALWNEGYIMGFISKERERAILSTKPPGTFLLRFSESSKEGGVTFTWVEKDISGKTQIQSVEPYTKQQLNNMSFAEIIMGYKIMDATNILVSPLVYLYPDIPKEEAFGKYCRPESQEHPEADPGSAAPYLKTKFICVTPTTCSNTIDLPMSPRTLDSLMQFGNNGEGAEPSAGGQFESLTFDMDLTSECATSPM
# Procedure: Coding regions for the murine STAT3 protein and STAT3 SH2 domain were amplified by PCR and cloned into vectors pET-44 Ek/LIC (Novagen) and pET SUMO (Invitrogen), respectively. […] Clones were sequenced to verify the correct sequences and orientation. His-tagged recombinant proteins were expressed in BL21(DE3) cells, and purified on Ni-ion sepharose column.
# Surface Plasmon resonance analysis was performed to characterize the binding of compounds to STAT3, as previously reported (16). SensiQ and its analysis software Qdat (ICX Technologies, Oklahoma City, Okla.) were used to analyze the interaction between agents and the STAT3 protein and to determine the binding affinity. Purified STAT3 was immobilized on a HisCap Sensor Chip by injecting 50 μg/ml of STAT3 onto the chip. Various concentrations of compounds in running buffer (1×PBS, 0.5% DMSO) were passed over the sensor chip to produce response signals. The association and dissociation rate constants were calculated using the Qdat software. The ratio of the association and dissociation rate constants was determined as the affinity (KD).
# [4] = system: pSrc; assay: Immunoblotting of constitutive pSrc in NIH3T3/v-Src and MDA-MB-231; assay type: cell-based; conditions: same treatments, all panels of FIG. 2
# Procedure: as §1, §2
# [5] = system: Panc-1; assay: CyQuant cell viability and proliferation assay, Panc-1; assay type: cell-based; conditions: Homo sapiens, 48 h, CyQuant viability
# Procedure: (§3) Briefly, human breast (MDA-MB-231), pancreatic (Panc-1), and prostate (DU145) cancer cells, the v-Src transformed (NIH3T3/v-Src) fibroblasts or their normal counterparts (NIH3T3), and the murine thymic stromal epithelial cells (TE-71) were treated or not treated with 30-500 μM of the representative disclosed compounds, as indicated, for 48 h and assessed for viability using CyQuant cell proliferation kit. Values, mean (SD of 3 independent experiments each in triplicate.
# (§4) Cells in culture in 6-well or 96-well plates were treated with or without agents for 24-144 h and subjected to CyQuant cell proliferation assay (Invitrogen Corp/Life Technologies Corp, Carlsbad, Calif.). IC50 values shown below were derived from the plot of viability versus drug concentration.
# (§5) As aberrant STAT3 activity promotes cancer cell growth and survival, and tumor angiogenesis and metastasis (Turkson et al., 2004; Yue et al., 2009; Turkson et al., 2004; Turkson et al., 2001; Siddiquee et al., 2007; Siddiquee et al., 2007(b); Song et al., 2005; Turkson et al., 2005), the sensitivity of various cell lines to the purine scaffold treatment was tested. […] (see also Table 2). The data represented by FIG. 4 were the results of experiments performed in triplicate.
# [6] = system: TE-71; assay: CyQuant cell viability and proliferation assay, TE-71; assay type: cell-based, murine; conditions: Mus musculus; 48 h, CyQuant viability
# Procedure: as §3, §4, §5
# [7] = system: DU 145; assay: CyQuant cell viability and proliferation assay, DU 145; assay type: cell-based; conditions: Homo sapiens, 48 h, CyQuant viability
# Procedure: as §3, §4, §5
# [8] = system: NIH3T3/v-Src; assay: CyQuant cell viability and proliferation assay, NIH3T3/v-Src; assay type: cell-based; conditions: Mus musculus, 48 h, CyQuant viability
# Procedure: as §3, §4, §5
# [9] = system: DU145, MDA-MB-231, Panc-1 and NIH3T3/v-Src cells; assay: CyQuant cell proliferation assay, cells that harbor constitutively active STAT3; assay type: cell-based; conditions: 48 hours, 30-500 μM, DU145, MDA-MB-231, Panc-1, NIH3T3/v-Src
# Excerpt: Values, mean (SD of 3 independent experiments each in triplicate.
# IC50 values shown below were derived from the plot of viability versus drug concentration.
# (see also Table 2). The data represented by FIG. 4 were the results of experiments performed in triplicate.
# [10] = system: NIH3T3; assay: CyQuant cell viability and proliferation assay, NIH3T3; assay type: cell-based; conditions: Mus musculus, 48 h, CyQuant viability
# Procedure: as §3, §4, §5
# [11] = system: pY705STAT3; assay: Immunoblotting of constitutive STAT3 phosphorylation in MDA-MB-231; assay type: cell-based, human; conditions: for constitutive STAT3 phosphorylation: MDA-MB-231, 40 or 50 μM, 12, 24, or 48 h
# Procedure: as §1, §2
# [12] = system: MDA-MB-231; assay: CyQuant cell viability and proliferation assay, MDA-MB-231; assay type: cell-based; conditions: Homo sapiens, 48 h, CyQuant viability
# Procedure: as §3, §4, §5
# [13] = system: pY705-STAT3; assay: Immunoblotting of EGF-induced STAT3 phosphorylation in NIH3T3/hEGFR; assay type: cell-based, mouse; conditions: EGF-stimulated
# Procedure: As indicated, the cells were treated or untreated with the indicated agents at 40 or 50 μM for the indicated times and probing for pY705STAT3, STAT3, pErk1/2, Erk1/2, pSrc, Src, pSTAT1, STAT1, or pTyr (clone 4G10). Positions of proteins in gel are labeled; control lanes (0) are whole-cell lysates from 0.05% DMSO-treated cells. Data are representative of 3-4 independent determinations. Further discussion on the figure is provided in the Experimental section below.
# as §2
# The effect of 8bj and 17b on ligand-stimulated STAT activation was also examined. […] These findings were consistent with other reports regarding other SH2 domain binding STAT3 inhibitors. (Turkson et al., 2001; Siddiquee et al., 2007; Siddiquee et al., 2007(b)).
Kd [3] [µM],IC50 [5] [µM],IC50 [12] [µM],SMILES,"STAT3 phosphorylation during prolonged treatment ([1]; NIH3T3/v-Src fibroblasts, time course)",constitutive STAT3 phosphorylation [1],constitutive levels of phospho-ErkMAPK (pErk1/2) [2],constitutive levels of Src (pSrc) [4],IC50 [6] [µM],IC50 [7] [µM],IC50 [8] [µM],malignant cell viability [9],IC50 [10] [µM],constitutive STAT3 phosphorylation [11],"time after treatment at which STAT3 phosphorylation was inhibited ([11]; MDA-MB-231, time course) [min]","STAT3 phosphorylation after 6 h of treatment ([11]; MDA-MB-231, time course, 6 h)",epidermal growth factor (EGF)-induced STAT3 phosphorylation [13]
16.7,176 ± 5.3,145 ± 4.4,"O=C(O)Cn1cnc2c(NC3CCCC3)nc(NCc3ccc(C4CCCCC4)cc3)nc21 [8be, 2-(2-((4-cyclohexylbenzyl)amino)-6-(cyclopentylamino)-9H-purin-9-yl)acetic acid]",temporarily restored,inhibition of constitutive STAT3 phosphorylation,no effect,no effect,> 500,68.6 ± 1.8,100 ± 2.2,decrease in malignant cell viability,> 500,inhibition of constitutive STAT3 phosphorylation,15 to 30,restoration of STAT3 phosphorylation,–
39,77.2 ± 1.9,66.1 ± 2.1,"CC(C)CNc1nc(NCc2ccc(C3CCCCC3)cc2)nc2c1ncn2CC(=O)O [8bj, 2-(2-((4-cyclohexylbenzyl)amino)-6-(isobutylamino)-9H-purin-9-yl)acetic acid]",–,inhibition of constitutive STAT3 phosphorylation,no effect,no effect,> 500,65.3 ± 2.3,41.1 ± 4.6,decrease in malignant cell viability,> 500,inhibition of constitutive STAT3 phosphorylation,–,–,selectively inhibited
